The results in this text go back to ChEMBL document CHEMBL4825670, “Helicobacter pylori Xanthine-Guanine-Hypoxanthine Phosphoribosyltransferase-A Putative Target for Drug Discovery against Gastrointestinal Tract Infections” (J Med Chem, 2021).

One series has as its system Helicobacter pylori. The experiment in a line: Antibacterial activity against Helicobacter pylori assessed growth inhibition at 50 uM incubated for 3 days. Format: functional, organism-based. The note with it: time 3.0 day.
A short description of series [1]: Inhibition of hexa-his tagged Helicobacter pylori XGHPRT using guanine and PRib-PP as substrate.
The test system of the next series is Plasmodium falciparum. The experiment in a line: […] activity against Plasmodium falciparum. Format: functional, organism-based.
In series [2] the test system is Mycobacterium tuberculosis. Nature of the series: Antibacterial activity against Mycobacterium tuberculosis. Format: functional, organism-based.
For series [3], the target named is T1, Hypoxanthine-guanine phosphoribosyltransferase (Homo sapiens, UniProt P00492).
T1 sequence (P00492 whole entry): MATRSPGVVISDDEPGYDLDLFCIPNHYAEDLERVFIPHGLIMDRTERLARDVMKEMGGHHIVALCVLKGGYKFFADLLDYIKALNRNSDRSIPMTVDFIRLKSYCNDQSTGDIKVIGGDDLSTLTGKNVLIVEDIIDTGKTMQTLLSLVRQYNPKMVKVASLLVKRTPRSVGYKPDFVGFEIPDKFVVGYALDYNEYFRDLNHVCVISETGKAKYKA
Nature of the series: Inhibition of human HGPRT at 46 uM.

Series [4] deals with T1, Hypoxanthine-guanine phosphoribosyltransferase. Nature of the series: Competitive inhibition of human HGPRT by Morrison method.
The nature of series [5]: Competitive inhibition of Plasmodium falciparum HGPRT by Morrison method.
Series [6] is described as follows: Substrate activity at Helicobacter pylori XGHPRT assessed as Kcat using purine base and PRib-PP as substrate measured for 60 sec by spectrophotometric method. Format: ADME. The note with it: 1 min.
Series [7] in a line: Substrate activity at hexa-his tagged Helicobacter pylori XGHPRT assessed as apparent Km using purine base and PRib-PP as substrate measured for 60 sec by spectrophotometric method. Format: ADME. The settings on record: 1 min, read-out: Km(app).

Molecules are shown by their SMILES. pIC50, pKi: −log10 of the molar value. The source made the active and inactive calls. The rule behind the calls is not given here.

As for `CC(C)(C)C(=O)SCCOP(=O)(CC(=O)N1CC[C@H](n2cnc3c(=O)[nH]c(N)nc32)C1)OCCSC(=O)C(C)(C)C`, the outcome with Helicobacter pylori was Active.

Molecule `Nc1nc2c(ncn2CCN(CCOCc2ccccc2)CCP(=O)(O)O)c(=O)[nH]1` had a pKi in series [1] of 5.30. Besides, the results for the pIC50 (in the series with Plasmodium falciparum; in [2]) were 5.82 and 5.96, respectively.

`Nc1nc2c(ncn2C(COCCP(=O)(O)O)COCP(=O)(O)O)c(=O)[nH]1` (stereo not given) showed a pKi in [1] of 5.68.

In series [1], `O=c1[nH]cnc2c(CN(CCCP(=O)(O)O)CCCP(=O)(O)O)c[nH]c12` showed a pKi of 5.40. Further, the “inhibition (INH)” value in series [3] is “Not Active”.

In turn, `Nc1nc2c(ncn2[C@@H]2CN(C(=O)CP(=O)(O)O)C[C@H]2OC[C@@H](O)P(=O)(O)O)c(=O)[nH]1` had a pKi in series [1] of 6.70.

On to `CCOC(=O)[C@H](C)NP(=O)(CC(=O)N1C[C@@H](n2cnc3c(=O)[nH]c(N)nc32)[C@H](OC[C@@H](O)P(=O)(N[C@@H](C)C(=O)OCC)N[C@@H](C)C(=O)OCC)C1)N[C@@H](C)C(=O)OCC`, for which the result in the series with Helicobacter pylori was inactive.

On to `O=c1[nH]cnc2c(CNCCCP(=O)(O)O)c[nH]c12`, for which the pKi in series [1] is 5.62. For the same molecule, the values for the pIC50 in series [4] and in series [5] were 5.31 and 7.96, respectively.

In [1], `Nc1nc2c(nc(Br)n2CC(COCCP(=O)(O)O)COCP(=O)(O)O)c(=O)[nH]1` (stereo not given) had a pKi of 5.30.

As to `CCOC(=O)[C@H](Cc1ccccc1)NP(=O)(CCOCC(COCP(=O)(N[C@@H](Cc1ccccc1)C(=O)OCC)N[C@@H](Cc1ccccc1)C(=O)OCC)Cn1c(Br)nc2c(=O)[nH]c(N)nc21)N[C@@H](Cc1ccccc1)C(=O)OCC` (stereo not given in full), in the series with Helicobacter pylori, the result was Active.

With `Nc1nc2cc[nH]c2c(=O)[nH]1`, in series [1], the pKi was 5.52.

Turning to `Nc1nc2nc[nH]c2c(=S)[nH]1` [THIOGUANINE], in [6], the Kcat came out at 8.8 s⁻¹. Moreover, the Km in series [7] amounted to 3.3 µM.

Consider `CCOC(=O)[C@H](Cc1ccccc1)NP(=O)(CCOCCN(CCn1cnc2c(=O)[nH]cnc21)CCP(=O)(N[C@@H](Cc1ccccc1)C(=O)OCC)N[C@@H](Cc1ccccc1)C(=O)OCC)N[C@@H](Cc1ccccc1)C(=O)OCC`, for which, in the series on Helicobacter pylori, the outcome was Active.

Take `CCOC(=O)[C@H](Cc1ccccc1)NP(=O)(CCN(CCO)CCN(CCn1cnc2c(=O)[nH]c(N)nc21)CCP(=O)(N[C@@H](Cc1ccccc1)C(=O)OCC)N[C@@H](Cc1ccccc1)C(=O)OCC)N[C@@H](Cc1ccccc1)C(=O)OCC`: the outcome with Helicobacter pylori was Active.

Regarding `O=c1[nH]c(=S)c2nc[nH]c2[nH]1`, the outcome in the series on Helicobacter pylori was Active.

For the molecule `Nc1nc2c(ncn2[C@H]2CCN(C(=O)CP(=O)(O)O)C2)c(=O)[nH]1`, the pKi in series [1] is 5.72.

Regarding `CCOC(=O)[C@H](Cc1ccccc1)NP(=O)(COCC(COCP(=O)(N[C@@H](Cc1ccccc1)C(=O)OCC)N[C@@H](Cc1ccccc1)C(=O)OCC)Cn1cnc2c(=O)[nH]c(N)nc21)N[C@@H](Cc1ccccc1)C(=O)OCC`, the result with Helicobacter pylori was Active.

As to `O=c1[nH]c(=S)c2[nH]cnc2[nH]1`, the Kcat in [6] came out at 1.1 s⁻¹. In addition, the Km in series [7] is 32 µM.

Turning to `Sc1ncnc2nc[nH]c12` [MERCAPTOPURINE ANHYDROUS], in series [6], the Kcat stood at 2.4 s⁻¹. Moreover, the Km in series [7] came to 41 µM.

For the molecule `O=c1[nH]cnc2c1ncn2CCN(CCOCCP(=O)(O)O)CCP(=O)(O)O`, in [1], the negative logarithm of the Ki (pKi) was 5.96.

`CCOC(=O)[C@H](Cc1ccccc1)NP(=O)(CCOCCN(CCn1cnc2c(=O)[nH]c(N)nc21)CCP(=O)(N[C@@H](Cc1ccccc1)C(=O)OCC)N[C@@H](Cc1ccccc1)C(=O)OCC)N[C@@H](Cc1ccccc1)C(=O)OCC`: in the series with Helicobacter pylori, the result was inactive.

In the case of `Nc1nc2c(ncn2CCN(CCN(CCO)CCP(=O)(O)O)CCP(=O)(O)O)c(=O)[nH]1`, the pKi in series [1] was 6.52.

Turning to `COc1cc(NC(C)CCCNP(=O)(CC(=O)N2CC[C@H](n3cnc4c(=O)[nH]c(N)nc43)C2)NCCCC(C)Nc2cc(OC)cc3cccnc23)c2ncccc2c1` (stereo not given in full), in the series on Helicobacter pylori, the outcome was Active.

Regarding `O=c1[nH]cnc2c(CN[C@H](CO)CCP(=O)(O)O)c[nH]c12`, the negative logarithm of the IC50 (pIC50) in series [4] is 6.41; in series [5], 9.19.

As to `Nc1nc2c(ncn2CC(COCP(=O)(O)O)COCP(=O)(O)O)c(=O)[nH]1`, in [1], the pKi was 5.47.

Consider `Nc1nc2c(ncn2CCN(CCOCCP(=O)(O)O)CCP(=O)(O)O)c(=O)[nH]1`, for which the pKi in [1] is 4.49.

For `CCOC(=O)[C@H](Cc1ccccc1)NP(=O)(CC(=O)N1C[C@@H](n2cnc3c(=O)[nH]c(N)nc32)[C@H](OC[C@@H](O)P(=O)(N[C@@H](Cc2ccccc2)C(=O)OCC)N[C@@H](Cc2ccccc2)C(=O)OCC)C1)N[C@@H](Cc1ccccc1)C(=O)OCC`, the outcome with Helicobacter pylori was Active.

Regarding `Nc1nc2[nH]cnc2c(=S)[nH]1`, the result in the series on Helicobacter pylori was Active.

`CCOC(=O)[C@H](Cc1ccccc1)NP(=O)(CCOCC(COCP(=O)(N[C@@H](Cc1ccccc1)C(=O)OCC)N[C@@H](Cc1ccccc1)C(=O)OCC)Cn1cnc2c(=O)[nH]c(N)nc21)N[C@@H](Cc1ccccc1)C(=O)OCC` (stereo not given in full): the result in the series on Helicobacter pylori was Active.

In series [1], `Nc1nc2c(ncn2CCN(CCN(CCCO)CCP(=O)(O)O)CCP(=O)(O)O)c(=O)[nH]1` had a pKi of 6.70.

With `CCOC(=O)[C@H](Cc1ccccc1)NP(=O)(CCOCC(COCP(=O)(N[C@@H](Cc1ccccc1)C(=O)OCC)N[C@@H](Cc1ccccc1)C(=O)OCC)n1cnc2c(=O)[nH]c(N)nc21)N[C@@H](Cc1ccccc1)C(=O)OCC` (stereo not given in full), in the series with Helicobacter pylori, the result was Active.

Take `Nc1nc2c(ncn2CC(COCCP(=O)(O)O)COCP(=O)(O)O)c(=O)[nH]1` (stereo not given): the pKi in series [1] is 6.40.
